In patent US20250360145A1, “CSF-1R INHIBITORS AND USES THEREOF” (Myrobalan Therapeutics, Inc., priority 2022, published 2025):
Where two headings read alike, the source gives them in different places.

Tests used:
c-Kit = c-Kit (Homo sapiens (Human), UniProt P10721); assay: Biochemical HTRF kinase assay, c-Kit; conditions: for IC50: recombinant human protein, read-out: cKit IC50; for cKit Fold: selectivity: IC50 of cKit as multiple of IC50 of CSF-1R;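 on all read-outs here: enzyme reaction with substrate and ATP run in 384-well plates for 1 hour at room temperature, kinase activity detected by HTRF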
CSF-1R = CSF-1R (Homo sapiens (Human), UniProt P07333); assay: Biochemical HTRF kinase assay, CSF-1R; conditions: recombinant human CSF-1R;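 further: enzyme incubated with inhibitor plus a substrate and ATP mix for one hour at room temperature before HTRF detection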
EOC2 cell = assay: Cell proliferation assay, EOC2; format: cell-based, mouse; conditions: EOC2 cells, 72 hours treatment, read-out: ECO2 EC50
FLT3 = FLT3 (Homo sapiens (Human), UniProt P36888); assay: Biochemical HTRF kinase assay, FLT3; conditions: for IC50: recombinant human protein; for FLT3 Fold: selectivity: IC50 of FLT3 as multiple of IC50 of CSF-1R
PDGFRβ = PDGFRβ (Homo sapiens (Human), UniProt P09619); assay: Biochemical HTRF kinase assay, PDGFRβ; conditions: for IC50: recombinant human protein, read-out: PDGFR-1β IC50; for PDGFR-1β Fold: selectivity: IC50 of PDGFR-1β as multiple of IC50 of CSF-1R;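 on all read-outs here: kinase reaction with substrate/ATP mix run 1 h at room temperature in 384-well format, HTRF signal detection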
[1] = system: Ba/F3_CSF-1R (stably expressing human CSF-1R kinase); assay: Cell proliferation assay, Ba/F3_CSF-1R; format: cell-based
[2] = BaF3, 72 h, Ba/F3_CSF-1R cells, 72 hours treatment, read-out: CSF-1R BaF3 EC50

PDGFRβ, sequence (P09619 33-1106): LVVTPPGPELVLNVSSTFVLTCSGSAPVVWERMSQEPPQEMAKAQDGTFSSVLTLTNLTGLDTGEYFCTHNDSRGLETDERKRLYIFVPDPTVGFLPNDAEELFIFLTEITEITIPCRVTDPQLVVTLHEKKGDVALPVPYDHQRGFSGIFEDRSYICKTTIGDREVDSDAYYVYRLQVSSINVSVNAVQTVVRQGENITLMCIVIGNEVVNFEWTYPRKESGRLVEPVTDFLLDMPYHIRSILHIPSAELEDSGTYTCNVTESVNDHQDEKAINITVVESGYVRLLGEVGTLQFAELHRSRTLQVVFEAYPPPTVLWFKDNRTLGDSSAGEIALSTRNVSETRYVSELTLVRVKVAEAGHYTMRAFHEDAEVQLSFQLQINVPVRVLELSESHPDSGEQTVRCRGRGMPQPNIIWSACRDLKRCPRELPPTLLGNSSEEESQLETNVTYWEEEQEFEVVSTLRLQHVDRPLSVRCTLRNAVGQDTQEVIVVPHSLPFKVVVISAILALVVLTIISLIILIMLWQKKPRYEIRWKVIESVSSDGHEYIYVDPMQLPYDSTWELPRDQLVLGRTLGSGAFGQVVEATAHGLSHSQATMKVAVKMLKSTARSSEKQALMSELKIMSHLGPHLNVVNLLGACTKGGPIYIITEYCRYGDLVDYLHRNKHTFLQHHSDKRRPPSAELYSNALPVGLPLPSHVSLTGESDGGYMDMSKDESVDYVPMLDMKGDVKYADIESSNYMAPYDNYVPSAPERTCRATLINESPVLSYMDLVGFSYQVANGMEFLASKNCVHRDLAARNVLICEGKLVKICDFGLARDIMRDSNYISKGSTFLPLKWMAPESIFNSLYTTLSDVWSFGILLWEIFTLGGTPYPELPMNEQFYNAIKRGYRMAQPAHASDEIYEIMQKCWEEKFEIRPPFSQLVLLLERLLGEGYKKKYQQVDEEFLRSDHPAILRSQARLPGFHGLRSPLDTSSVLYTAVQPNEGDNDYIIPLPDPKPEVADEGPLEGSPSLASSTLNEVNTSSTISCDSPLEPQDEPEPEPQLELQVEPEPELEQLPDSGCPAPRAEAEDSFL
c-Kit, sequence (P10721 26-976): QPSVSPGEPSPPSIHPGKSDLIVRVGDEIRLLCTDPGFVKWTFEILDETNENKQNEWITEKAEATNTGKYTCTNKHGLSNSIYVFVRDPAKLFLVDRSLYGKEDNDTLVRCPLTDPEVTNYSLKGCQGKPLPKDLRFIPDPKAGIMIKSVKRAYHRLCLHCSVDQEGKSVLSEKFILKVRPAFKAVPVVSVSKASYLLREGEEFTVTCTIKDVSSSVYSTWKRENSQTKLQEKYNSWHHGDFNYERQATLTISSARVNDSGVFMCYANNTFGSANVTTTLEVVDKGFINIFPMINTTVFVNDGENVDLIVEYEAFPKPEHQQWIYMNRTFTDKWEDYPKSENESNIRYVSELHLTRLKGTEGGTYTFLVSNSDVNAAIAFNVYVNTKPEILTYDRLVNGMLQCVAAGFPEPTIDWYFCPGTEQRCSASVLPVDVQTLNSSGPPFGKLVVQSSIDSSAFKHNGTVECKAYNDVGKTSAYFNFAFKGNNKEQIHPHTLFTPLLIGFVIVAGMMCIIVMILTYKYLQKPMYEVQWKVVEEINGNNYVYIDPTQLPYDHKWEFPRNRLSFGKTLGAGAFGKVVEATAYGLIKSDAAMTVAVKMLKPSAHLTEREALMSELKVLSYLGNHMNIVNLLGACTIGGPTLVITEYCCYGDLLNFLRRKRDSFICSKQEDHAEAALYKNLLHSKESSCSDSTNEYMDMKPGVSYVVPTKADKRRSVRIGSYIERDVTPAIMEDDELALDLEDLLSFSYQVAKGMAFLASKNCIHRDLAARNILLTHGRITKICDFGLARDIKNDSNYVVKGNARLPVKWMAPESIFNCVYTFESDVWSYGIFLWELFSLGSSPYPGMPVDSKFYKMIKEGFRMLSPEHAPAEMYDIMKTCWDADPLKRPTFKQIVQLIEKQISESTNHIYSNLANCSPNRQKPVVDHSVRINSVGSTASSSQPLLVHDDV
CSF-1R, sequence (P07333 20-972): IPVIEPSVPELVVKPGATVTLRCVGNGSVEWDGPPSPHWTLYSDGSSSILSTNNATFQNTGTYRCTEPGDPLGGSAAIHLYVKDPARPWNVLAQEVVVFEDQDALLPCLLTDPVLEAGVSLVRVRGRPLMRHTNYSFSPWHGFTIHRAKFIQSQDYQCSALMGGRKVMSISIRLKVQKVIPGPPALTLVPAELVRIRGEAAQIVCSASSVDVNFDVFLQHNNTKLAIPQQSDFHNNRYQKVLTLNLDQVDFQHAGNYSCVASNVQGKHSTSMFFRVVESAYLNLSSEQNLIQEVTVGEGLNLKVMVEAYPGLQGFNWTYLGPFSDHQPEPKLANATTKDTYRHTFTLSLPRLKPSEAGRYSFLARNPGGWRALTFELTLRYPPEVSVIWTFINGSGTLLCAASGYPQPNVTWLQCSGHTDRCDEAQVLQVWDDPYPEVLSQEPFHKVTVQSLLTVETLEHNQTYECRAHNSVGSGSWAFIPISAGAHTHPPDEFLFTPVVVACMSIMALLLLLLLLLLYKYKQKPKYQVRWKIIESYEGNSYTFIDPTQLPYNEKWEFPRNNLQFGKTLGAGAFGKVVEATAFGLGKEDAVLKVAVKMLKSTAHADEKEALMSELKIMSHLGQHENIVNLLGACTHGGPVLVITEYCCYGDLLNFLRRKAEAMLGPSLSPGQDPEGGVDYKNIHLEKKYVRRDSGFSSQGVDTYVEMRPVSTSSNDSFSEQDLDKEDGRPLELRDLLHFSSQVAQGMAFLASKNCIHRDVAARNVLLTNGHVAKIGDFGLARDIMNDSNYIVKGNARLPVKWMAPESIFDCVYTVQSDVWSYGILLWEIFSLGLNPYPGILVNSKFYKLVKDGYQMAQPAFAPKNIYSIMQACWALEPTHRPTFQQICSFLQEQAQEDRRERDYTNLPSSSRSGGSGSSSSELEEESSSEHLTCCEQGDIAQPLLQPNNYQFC
FLT3, sequence (P36888 27-993): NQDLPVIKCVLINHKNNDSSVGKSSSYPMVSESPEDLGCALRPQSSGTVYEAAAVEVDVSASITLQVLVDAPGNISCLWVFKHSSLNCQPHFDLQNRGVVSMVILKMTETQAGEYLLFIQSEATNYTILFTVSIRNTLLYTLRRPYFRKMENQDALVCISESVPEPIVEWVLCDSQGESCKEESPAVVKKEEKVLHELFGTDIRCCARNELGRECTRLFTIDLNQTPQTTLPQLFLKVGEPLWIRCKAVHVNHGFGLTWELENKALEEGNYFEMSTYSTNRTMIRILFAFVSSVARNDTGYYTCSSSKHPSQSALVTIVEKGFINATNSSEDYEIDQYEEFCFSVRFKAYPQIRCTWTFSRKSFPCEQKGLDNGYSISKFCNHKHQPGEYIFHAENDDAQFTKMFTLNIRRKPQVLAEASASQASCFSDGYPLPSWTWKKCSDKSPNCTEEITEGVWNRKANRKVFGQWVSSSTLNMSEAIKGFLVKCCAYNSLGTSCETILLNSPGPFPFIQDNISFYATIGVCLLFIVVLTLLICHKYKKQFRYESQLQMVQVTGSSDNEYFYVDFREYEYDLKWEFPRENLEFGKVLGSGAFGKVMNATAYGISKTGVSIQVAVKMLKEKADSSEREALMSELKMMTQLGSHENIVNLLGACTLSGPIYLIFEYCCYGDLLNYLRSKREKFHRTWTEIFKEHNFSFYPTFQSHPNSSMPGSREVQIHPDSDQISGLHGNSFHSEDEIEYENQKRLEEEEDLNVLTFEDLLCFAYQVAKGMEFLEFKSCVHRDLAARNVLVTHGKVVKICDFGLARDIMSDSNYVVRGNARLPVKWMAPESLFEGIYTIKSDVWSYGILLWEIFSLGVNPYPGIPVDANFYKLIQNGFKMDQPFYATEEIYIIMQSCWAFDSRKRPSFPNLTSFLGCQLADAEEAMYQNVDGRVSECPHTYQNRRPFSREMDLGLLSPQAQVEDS

Row | SMILES | IC50 (c-Kit) [nM] | cKit Fold (c-Kit) [fold] | IC50 (CSF-1R; Table 2) [nM] | IC50 (CSF-1R; Table 3) [nM] | EC50 (EOC2 cell; Mus musculus, 72 h) [nM] | IC50 (FLT3) [nM] | FLT3 Fold (FLT3) [fold] | IC50 (PDGFRβ) [nM] | PDGFR-1β Fold (PDGFRβ) [fold] | EC50 [1, 2] [nM] | EC50 (EOC2 cell) [nM] | EC50 ([1]; Ba/F3_CSF-1R cells, 72 hours treatment, read-out: CSF-1R BaF3 EC50) [nM] | EC50 ([1]; BaF3, 72 h, read-out: CSF-1R BaF3 EC50 (nM)) [nM]
1 | COc1cnc2c(Cc3cnc(OCc4cc(C(C)C)no4)c(OC)c3)ccnc2c1 [Example 83] | > 1000 | >100 | 1.2 | 1.2 | 37 | > 1000 | >100 | 158 | >100 | 26.7 |  |  | 
2 | COc1cnc2c(Cc3cnc(OCc4ccc(C5CC5)cn4)c(OC)c3)ccnc2c1 [Example 59] | > 1000 | >100 | 4.4 | 4.4 | 42.3 | > 1000 | >100 | 349 | 79 | 41.5 |  |  | 
3 | [2H]C([2H])([2H])Oc1ccc(COc2ncc(Cc3ccnc4cc(OC)cnc34)cc2OC)nc1 [Example 78] | > 1000 | >100 | 6.7 | 6.7 | 48.4 | > 1000 | >100 | 947 | >100 | 143 |  |  | 
4 | COc1cnc2c(Cc3cnc(OCc4ccc(C)cn4)c(OC)c3)ccnc2c1 [Example 55] | 785 | >100 | 3.2 | 3.2 | 45.4 | > 1000 | >100 | 322 | >100 | 155 |  |  | 
5 | COc1cnc2c(Cc3cnc(OCc4ccc(C5CC5(F)F)cn4)c(OC)c3)ccnc2c1 (stereo not shown) [Example 66] | 948 | >100 | 3 | 3 | 62.7 | > 1000 | >100 | 73.6 | 24.5 | 89.1 |  |  | 
6 | COc1cnc2c(Cc3cnc(OCc4ccc([C@H]5CC5(F)F)cn4)c(OC)c3)ccnc2c1 (stereo in doubt) [Example 80] | 214 | 53.4 | 4 | 4 |  | > 1000 | >100 | 49 | 12.3 | 50.7 | 29.8 |  | 
7 | COc1cnc2c(Cc3cnc(OCc4cc5n(n4)C[C@@H](OC)C5)c(OC)c3)ccnc2c1 [Example 121] | > 1000 | >50 | 19.9 | 19.9 | 15.2 | > 1000 | >50 | > 1000 | >50 | 41.1 |  |  | 
8 | COc1cnc2c(Cc3cnc(OCc4cnc5c(c4)OCCN5C)c(OC)c3)ccnc2c1 [Example 87] | > 1000 | >100 | 0.83 | 0.83 | 92 | > 1000 | >100 | 208 | >100 | 86.3 |  |  | 
9 | COc1cnc2c(Cc3cnc(OCc4ccc([C@H]5CC5(F)F)cn4)c(OC)c3)ccnc2c1 (stereo in doubt) [Example 81] | > 1000 | >100 | 5.1 | 5.1 |  | > 1000 | >100 | 371 | 72.7 |  | 60.9 | 25.8 | 
10 | COc1cnc2c(Cc3cnc(OCc4cc5n(n4)C[C@H](F)C5)c(OC)c3)ccnc2c1 [Example 112] | > 1000 | >100 | 4.7 | 4.7 | 102 | > 1000 | >100 | 874 | >100 | 168 |  |  | 
11 | COc1cnc2c(Cc3cnc(OCc4cc5n(n4)CCCO5)c(OC)c3)ccnc2c1 [Example 86] |  |  | 4.4 |  | 183 |  |  |  |  | 290 |  |  | 
12 | COc1cnc2c(Cc3cnc(OCc4cc(C(C)C)nn4C)c(OC)c3)ccnc2c1 [Example 106] |  |  | 2.6 |  | 76.3 |  |  |  |  | 95.9 |  |  | 
13 | COc1ccc(COc2ncc(Cc3ccnc4cc(N5CC(F)(F)C5)cnc34)cc2OC)nc1 [Example 144] |  |  | 11.3 |  | 25.3 |  |  |  |  | 10.7 |  |  | 
14 | COc1ccc(COc2ncc(Cc3ccnc4cc(C(=O)N(C)C)cnc34)cc2OC)nc1 [Example 133] |  |  | 58.8 |  | 312 |  |  |  |  | 443 |  |  | 
15 | COc1cnc2c(Cc3ccc4nc([C@H]5CC[C@@H](OC)CC5)cnc4c3)ccnc2c1 [Example 154] |  |  | 28.6 |  |  |  |  |  |  | 329 | 199 |  | 
16 | COc1cnc(COc2ccc(Cc3ccnc4cc(OC)ccc34)cc2OC)nc1 [Example 40] |  |  | 93.7 |  | 956 |  |  |  |  | > 1000 |  |  | 
17 | COc1ccc(COc2ncc(Cc3ccnc4cc(-c5cnc(C)s5)cnc34)cc2OC)nc1 [Example 138, 5-(8-((5-methoxy-6-((5-methoxypyridin-2-yl)methoxy)pyridin-3-yl)methyl)-1,5-naphthyridin-3-yl)-2-methylthiazole] |  |  | 12.6 |  | 2.2 |  |  |  |  |  |  |  | 1.8
18 | COc1cnc2c(Cc3cnc(OCc4cc(C5COC5)no4)c(OC)c3)ccnc2c1 [Example 90] |  |  | 17.4 |  | 154 |  |  |  |  | 282 |  |  | 

Row | SMILES | IC50 (c-Kit) [nM] | cKit Fold (c-Kit) [fold] | IC50 (CSF-1R; Table 2) [nM] | IC50 (CSF-1R; Table 3) [nM] | EC50 (EOC2 cell; Mus musculus, 72 h) [nM] | IC50 (FLT3) [nM] | FLT3 Fold (FLT3) [fold] | IC50 (PDGFRβ) [nM] | PDGFR-1β Fold (PDGFRβ) [fold] | EC50 [1, 2] [nM] | EC50 (EOC2 cell) [nM] | EC50 ([1]; Ba/F3_CSF-1R cells, 72 hours treatment, read-out: CSF-1R BaF3 EC50) [nM] | EC50 ([1]; BaF3, 72 h, read-out: CSF-1R BaF3 EC50 (nM)) [nM]
19 | CCn1cc(COc2ncc(Cc3ccnc4cc(OC)cnc34)cc2OC)cn1 [Example 47] |  |  | 2 |  | > 1000 |  |  |  |  | > 1000 |  |  | 
20 | COc1cnc2c(Cc3cnc(OCc4ccc(CN(C)C)cn4)c(OC)c3)ccnc2c1 [Example 85] |  |  | 110 |  | > 1000 |  |  |  |  | > 1000 |  |  | 
21 | COc1ccc(COc2ncc(Cc3ccnc4cc(OC)cnc34)cc2OC(F)F)nc1 [Example 68, 8-((5-(difluoromethoxy)-6-((5-methoxypyridin-2-yl)methoxy)pyridin-3-yl)methyl)-3-methoxy-1,5-naphthyridine] |  |  | 99.2 |  | > 1000 |  |  |  |  | > 1000 |  |  | 
22 | COc1cnc2c(Cc3cnc(OCc4ccc(=O)n(C)c4)c(OC)c3)ccnc2c1 [Example 67] |  |  | 9.3 |  | > 1000 |  |  |  |  | > 1000 |  |  | 
23 | COc1cnc2c(Cc3cnc(OCc4ccc(C(F)F)nc4)c(OC)c3)ccnc2c1 [Example 60] |  |  | 5.4 |  | 84.1 |  |  |  |  | 97.3 |  |  | 
24 | COc1ccc2c(Cc3ccc(OCc4cn5ccccc5n4)c(OC)c3)ccnc2c1 [Example 18, 4-(4-(imidazo[1,2-a]pyridin-2-ylmethoxy)-3-methoxybenzyl)-7-methoxy quinoline] |  |  | 9.4 |  | 272 |  |  |  |  | 196 |  |  | 
25 | COc1cnc2c(Cc3cnc(OCc4cc5n(n4)C[C@@H](F)C5)c(OC)c3)ccnc2c1 [Example 128] |  |  | 4.9 |  | 4.9 |  |  |  |  | 21.5 |  |  | 
26 | COc1ccc2c(Cc3ccc(OCc4ccc5nccn5c4)c(OC)c3)ccnc2c1 [Example 7] |  |  | 5.3 |  | 328 |  |  |  |  | 305 |  |  | 
27 | COc1ccc(COc2ncc(Cc3ccnc4cc(N5CCC(OC)C5)cnc34)cc2OC)nc1 (stereo not shown) [Example 126] |  |  | 12.2 |  | 2.4 |  |  |  |  | 3.8 |  |  | 
28 | COc1ccc2c(Cc3ccc(OCc4ccn5nccc5c4)c(OC)c3)ccnc2c1 [Example 30] |  |  | 7.9 |  | 249 |  |  |  |  | 214 |  |  | 
29 | COc1cnc2c(Cc3cnc(OCc4cc5n(n4)[C@@H]4C[C@@H]4C5)c(OC)c3)ccnc2c1 [Example 120] |  |  | 1.9 |  | 18 |  |  |  |  | 43.7 |  |  | 
30 | COc1cnc2c(Cc3cnc(OCc4ccc5nccn5n4)c(OC)c3)ccnc2c1 [Example 129] |  |  | 42.7 |  | 166 |  |  |  |  | 307 |  |  | 
31 | COc1cnc2c(Cc3cnc(OCc4ccc5ccnn5c4)c(OC)c3)ccnc2c1 [Example 148] |  |  | 6.3 |  | 49.8 |  |  |  |  | 37.3 |  |  | 
32 | COc1ccc2c(Cc3ccc(OCc4ccc5c(c4)OC(F)(F)O5)c(OC)c3)ccnc2c1 [Example 33] |  |  | 203 |  | 89.5 |  |  |  |  | 218 |  |  | 
33 | COc1ccc(COc2ncc(Cc3ccnc4cc(C#N)cnc34)cc2OC)nc1 [Example 65, 8-((5-methoxy-6-((5-methoxypyridin-2-yl)methoxy)pyridin-3-yl)methyl)-1,5-naphthyridine-3-carbonitrile] |  |  | 26.9 |  | > 1000 |  |  |  |  | 787 |  |  | 
34 | COc1ccc(COc2ncc(Oc3ccnc4cc(OC)cnc34)cc2OC)nc1 [Example 54, 3-methoxy-8-((5-methoxy-6-((5-methoxypyridin-2-yl)methoxy)pyridin-3-yl)oxy)-1,5-naphthyridine] |  |  | 87.1 |  | 317 |  |  |  |  | 800 |  |  | 
35 | COc1cnc2c(Cc3cnc(OCc4cc5n(n4)CCOC5C)c(OC)c3)ccnc2c1 (stereo not shown) [Example 98] |  |  | 4.7 |  | 54.7 |  |  |  |  | 57.3 |  |  | 
36 | COc1cnc2c(Cc3cnc(OCc4cnn(C(C)C)c4)c(OC)c3)ccnc2c1 [Example 43] |  |  | 2.8 |  | > 1000 |  |  |  |  | > 1000 |  |  | 
